Test results taken from the CombiSolv-Exp solvation set (Vermeire and Green 2021).
Blank lines part the entries; values can stand above or below the compound they belong to.

Assay: solvent given as SMILES

Compound: C(=Cc1ccccc1)c1ccccc1
- solvation free energy, 298 K (in C1CCOC1): -11.8 kcal/mol
- solvation free energy, 298 K (in C1COCCO1): -11.5 kcal/mol
- solvation free energy, 298 K (in CC(C)(C)O): -9.66 kcal/mol
- solvation free energy, 298 K (in CC(C)CC(C)(C)C): -9.92 kcal/mol
- solvation free energy, 298 K (in CC(C)CC(C)O): -9.81 kcal/mol
- solvation free energy, 298 K (in CC(C)CCCC(C)CCO): -10 kcal/mol
- solvation free energy, 298 K (in CC(C)CCO): -9.88 kcal/mol
- solvation free energy, 298 K (in CC(C)CO): -9.73 kcal/mol
- solvation free energy, 298 K (in CC(C)O): -9.74 kcal/mol
- solvation free energy, 298 K (in CCC(C)(C)O): -9.84 kcal/mol
- solvation free energy, 298 K (in CCC(C)=O): -11.5 kcal/mol
- solvation free energy, 298 K (in CCC(C)O): -9.81 kcal/mol
- solvation free energy, 298 K (in CCCC(C)CO): -9.92 kcal/mol
- solvation free energy, 298 K (in CCCC(C)O): -9.91 kcal/mol
- solvation free energy, 298 K (in CCCCC(CC)CO): -10 kcal/mol
- solvation free energy, 298 K (in CCCCCC): -10.2 kcal/mol
- solvation free energy, 298 K (in CCCCCCC): -10.2 kcal/mol
- solvation free energy, 298 K (in CCCCCCCC): -10.2 kcal/mol
- solvation free energy, 298 K (in CCCCCCCCCC): -10.2 kcal/mol
- solvation free energy, 298 K (in CCCCCCCCCCO): -10.2 kcal/mol
- solvation free energy, 298 K (in CCCCCCCCO): -10.2 kcal/mol
- solvation free energy, 298 K (in CCCCCCCO): -10.2 kcal/mol
- solvation free energy, 298 K (in CCCCCCO): -10.1 kcal/mol
- solvation free energy, 298 K (in CCCCCO): -10.1 kcal/mol
- solvation free energy, 298 K (in CCCCO): -10 kcal/mol
- solvation free energy, 298 K (in CCCCOC(C)=O): -11.2 kcal/mol
- solvation free energy, 298 K (in CCCCOCCCC): -10.6 kcal/mol
- solvation free energy, 298 K (in CCCO): -9.97 kcal/mol
- solvation free energy, 298 K (in CCO): -9.99 kcal/mol
- solvation free energy, 298 K (in CCOC(C)=O): -11.2 kcal/mol
- solvation free energy, 298 K (in CCOCC): -11 kcal/mol
- solvation free energy, 298 K (in CN(C)C=O): -11.6 kcal/mol
- solvation free energy, 298 K (in CO): -9.92 kcal/mol
- solvation free energy, 298 K (in COC(C)(C)C): -10.9 kcal/mol
- solvation free energy, 298 K (in COC(C)=O): -11.2 kcal/mol
- solvation free energy, 298 K (in Cc1ccc(C)cc1): -11.3 kcal/mol
- solvation free energy, 298 K (in Cc1cccc(C)c1): -11.2 kcal/mol
- solvation free energy, 298 K (in Cc1ccccc1C): -11.3 kcal/mol
- solvation free energy, 298 K (in ClC(Cl)(Cl)Cl): -11.2 kcal/mol
- solvation free energy, 298 K (in Clc1ccccc1): -11.5 kcal/mol
- solvation free energy, 298 K (in O): -3.79 kcal/mol

Compound: CCCCC(CC)CO (stereo unspecified)
- solvation free energy, 298 K (in O): -3.96 kcal/mol

Compound: Nc1ccc(Cl)cc1
- solvation free energy, 298 K (in O): -5.91 kcal/mol

Compound: Clc1ccc(-c2ccc(Cl)c(Cl)c2Cl)c(Cl)c1Cl
- solvation free energy, 298 K (in O): -3.6 kcal/mol

Compound: CC(C)CCC(C)O (stereo unspecified)
- solvation free energy, 298 K (in CCCCCCCC): -5.33 kcal/mol
- solvation free energy, 298 K (in CCCCCCCCCC): -5.22 kcal/mol

Compound: CC(C)=NO
- solvation free energy, 298 K (in CCCCCC): -3.74 kcal/mol

Compound: CCCC(O)CC (stereo unspecified)
- solvation free energy, 298 K (in O): -4.06 kcal/mol

Compound: CCCCC(=O)OCCC(C)CCC=C(C)C (stereo unspecified)
- solvation free energy, 298 K (in O): -2.51 kcal/mol

Compound: c1ccc(Cn2ccnc2)cc1
- solvation free energy, 298 K (in O): -7.63 kcal/mol

Compound: C=C1CCC2C1C1C(C(C)C)CCC21C (stereo unspecified)
- solvation free energy, 298 K (in O): 1.19 kcal/mol

Compound: C1=CCCC=C1
- solvation free energy, 298 K (in C1CCC2CCCCC2C1): -4.14 kcal/mol
- solvation free energy, 298 K (in C1CCC(C2CCCCC2)CC1): -4.06 kcal/mol
- solvation free energy, 298 K (in CN1CCCC1=O): -3.77 kcal/mol
- solvation free energy, 298 K (in O): -0.26 kcal/mol
- solvation free energy, 298 K (in c1ccc2c(c1)CCCC2): -4.31 kcal/mol
- solvation free energy, 298 K (in c1ccc(C2CCCCC2)cc1): -4.19 kcal/mol

Compound: CCCCCCCOC(C)=O
- solvation free energy, 298 K (in NC=O): -4.84 kcal/mol
- solvation free energy, 298 K (in O): -2.07 kcal/mol

Compound: Clc1ccc(-c2cc(Cl)c(Cl)c(Cl)c2)cc1Cl
- solvation free energy, 298 K (in O): -3.79 kcal/mol

Compound: CC1=CCCCC1
- solvation free energy, 298 K (in O): 0.66 kcal/mol

Compound: CCCOC(C)=O
- solvation free energy, 298 K (in CC(=O)N(C)C): -4.72 kcal/mol
- solvation free energy, 298 K (in CC(C)CCCC(C)CCCC(C)CCCCC(C)CCCC(C)CCCC(C)C): -3.84 kcal/mol
- solvation free energy, 298 K (in CCCCC(CC)COC(=O)CCCCC(=O)OCC(CC)CCCC): -4.3 kcal/mol
- solvation free energy, 298 K (in CCCCCC): -4.03 kcal/mol
- solvation free energy, 298 K (in CCCCCCC): -4.02 kcal/mol
- solvation free energy, 298 K (in CCCCCCCC): -4.02 kcal/mol
- solvation free energy, 298 K (in CCCCCCCCC=CCCCCCCCC(=O)OCC(COC(=O)CCCCCCCC=CCCCCCCCC)OC(=O)CCCCCCCC=CCCCCCCCC): -4.35 kcal/mol
- solvation free energy, 298 K (in CCCCCCCCCC): -3.96 kcal/mol
- solvation free energy, 298 K (in CCCCCCCCCCCCCCCC): -3.9 kcal/mol
- solvation free energy, 298 K (in CCCCCCCCO): -4.33 kcal/mol
- solvation free energy, 298 K (in CCCCCO): -4.31 kcal/mol
- solvation free energy, 298 K (in CCCCN(C=O)CCCC): -4.56 kcal/mol
- solvation free energy, 298 K (in CCOCCO): -4.71 kcal/mol
- solvation free energy, 298 K (in CN1CCCC1=O): -4.62 kcal/mol
- solvation free energy, 298 K (in CN1CCCCC1=O): -4.72 kcal/mol
- solvation free energy, 298 K (in CNC(C)=O): -4.54 kcal/mol
- solvation free energy, 298 K (in CO): -4.82 kcal/mol
- solvation free energy, 298 K (in NC=O): -3.72 kcal/mol
- solvation free energy, 298 K (in O): -2.8 kcal/mol
- solvation free energy, 298 K (in O=CN1CCOCC1): -4.42 kcal/mol
- solvation free energy, 298 K (in [2H]O[2H]): -2.84 kcal/mol

The next lines start with the values.

- solvation free energy, 298 K (in CN(C)C=O): -11.6 kcal/mol
- solvation free energy, 298 K (in O): -6.89 kcal/mol
Compound: COC(=O)c1ccc(Cl)c([N+](=O)[O-])c1

- solvation free energy, 298 K (in O): -0.37 kcal/mol
Compound: CC(C)c1ccc2c(c1)CCC1C(C)(C)CCCC21C (stereo unspecified)

- solvation free energy, 298 K (in O): -8.98 kcal/mol
- solvation free energy, 298 K (in O=C1CCCCC1): -19.4 kcal/mol
Compound: c1cc2ccc3ccc4ccc5cccc6c(c1)c2c3c4c56

- solvation free energy, 298 K (in CCCCCCCC): -4.95 kcal/mol
- solvation free energy, 298 K (in CCCCCCCCCC): -5.29 kcal/mol
- solvation free energy, 298 K (in O): -5.5 kcal/mol
Compound: Cc1ccc(C=O)o1

- solvation free energy, 298 K (in CC(C)(C)O): -5.83 kcal/mol
- solvation free energy, 298 K (in CC(C)CC(C)(C)C): -4.97 kcal/mol
- solvation free energy, 298 K (in CCCCO): -6.41 kcal/mol
- solvation free energy, 298 K (in CCCO): -6.34 kcal/mol
- solvation free energy, 298 K (in O): -4.8 kcal/mol
Compound: Cc1cccnc1

- solvation free energy, 298 K (in CCCCCC): -7.93 kcal/mol
- solvation free energy, 298 K (in CCCCCCC): -7.93 kcal/mol
- solvation free energy, 298 K (in CCCCCCCC): -7.93 kcal/mol
- solvation free energy, 298 K (in CCCCCCCCCC): -7.93 kcal/mol
- solvation free energy, 298 K (in CCCCOCCCC): -11.8 kcal/mol
- solvation free energy, 298 K (in O): -10.7 kcal/mol
Compound: O=[N+]([O-])c1ccc(O)cc1

- solvation free energy, 298 K (in O): -0.15 kcal/mol
Compound: C=C(C)C1CCC2=CCCC(C)C2(C)C1 (stereo unspecified)

- solvation free energy, 298 K (in O): -4.71 kcal/mol
Compound: CCC(=O)CC(=O)CC

- solvation free energy, 298 K (in O): -3.61 kcal/mol
Compound: Clc1ccc(Cl)c(-c2cc(Cl)c(Cl)c(Cl)c2)c1

- solvation free energy, 298 K (in C1CCOC1): -13.7 kcal/mol
- solvation free energy, 298 K (in CCCCCCCCO): -13.1 kcal/mol
- solvation free energy, 298 K (in CCCCCO): -13 kcal/mol
- solvation free energy, 298 K (in CCCCO): -13.2 kcal/mol
- solvation free energy, 298 K (in CCCO): -13.2 kcal/mol
- solvation free energy, 298 K (in CCO): -13.3 kcal/mol
- solvation free energy, 298 K (in CCOC(C)=O): -12.8 kcal/mol
- solvation free energy, 298 K (in CO): -13.6 kcal/mol
- solvation free energy, 298 K (in O): -10.9 kcal/mol
Compound: CCOc1ccc(NC(C)=O)cc1

- solvation free energy, 298 K (in C=CCCCCCCC=C): -9.58 kcal/mol
- solvation free energy, 298 K (in C=CCCCCCCCCCCCCCC): -9.37 kcal/mol
- solvation free energy, 298 K (in O): -8.54 kcal/mol
Compound: O=C(O)c1ccc2ccccc2c1
